Test results from patent US11739098B2 (BRISTOL-MYERS SQUIBB COMPANY, priority 2017, dated 2023).

Key:
Format in all cases: cell-based
[1] = target: T1, human TLR7 (Homo sapiens, UniProt Q9NYK1); assay: TLR7 inhibition reporter assay (HEK-Blue cells, SEAP reporter, gardiquimod stimulation); settings: HEK-Blue cells overexpressing human TLR7, SEAP reporter, gardiquimod 7.5 μM
T1 construct: host or cells: HEK-Blue cells (HEK293-derived reporter line)
T1 sequence (Q9NYK1 27-1049): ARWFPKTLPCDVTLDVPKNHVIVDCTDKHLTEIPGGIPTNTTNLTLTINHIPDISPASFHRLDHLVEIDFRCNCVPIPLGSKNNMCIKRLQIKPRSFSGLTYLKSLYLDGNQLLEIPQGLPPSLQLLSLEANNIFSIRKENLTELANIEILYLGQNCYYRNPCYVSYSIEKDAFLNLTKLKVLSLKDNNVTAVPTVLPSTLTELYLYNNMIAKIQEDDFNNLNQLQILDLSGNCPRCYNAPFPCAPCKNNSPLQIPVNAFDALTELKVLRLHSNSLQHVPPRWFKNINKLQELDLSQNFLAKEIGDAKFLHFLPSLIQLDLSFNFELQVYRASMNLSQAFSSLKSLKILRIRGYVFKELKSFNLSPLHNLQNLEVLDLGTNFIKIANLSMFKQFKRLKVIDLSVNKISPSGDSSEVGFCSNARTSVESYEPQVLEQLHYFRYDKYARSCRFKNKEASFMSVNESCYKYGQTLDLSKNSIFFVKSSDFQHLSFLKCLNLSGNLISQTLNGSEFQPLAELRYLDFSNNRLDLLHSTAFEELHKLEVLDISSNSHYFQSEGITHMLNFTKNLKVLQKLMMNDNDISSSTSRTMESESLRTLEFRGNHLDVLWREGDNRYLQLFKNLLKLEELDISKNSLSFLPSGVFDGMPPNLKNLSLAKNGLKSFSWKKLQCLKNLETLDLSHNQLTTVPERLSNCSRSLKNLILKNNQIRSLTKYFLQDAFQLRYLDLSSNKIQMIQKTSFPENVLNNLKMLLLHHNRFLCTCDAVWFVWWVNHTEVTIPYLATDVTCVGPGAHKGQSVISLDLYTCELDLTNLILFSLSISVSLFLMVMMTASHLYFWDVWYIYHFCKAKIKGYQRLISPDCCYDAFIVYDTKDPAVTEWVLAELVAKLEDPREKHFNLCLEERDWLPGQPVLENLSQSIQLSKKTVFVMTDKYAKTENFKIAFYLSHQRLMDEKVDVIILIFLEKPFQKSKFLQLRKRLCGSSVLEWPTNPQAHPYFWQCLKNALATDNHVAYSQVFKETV
In short: (§1)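 Read-out is SEAP activity in HEK-Blue detection medium after 22 h at 37 °C, converted to percent inhibition against agonist-plus-DMSO and reference-inhibitor controls. Cells saw compound (0.05 nM–50 μM, 30 min, room temperature) before gardiquimod 7.5 μM, R848 15.9 μM or ODN2006 5 nM for TLR7, TLR8 and TLR9, respectively.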

[2] = target: T2, human TLR8 (Homo sapiens, UniProt Q9NR97); assay: TLR8 inhibition reporter assay (HEK-Blue cells, SEAP reporter, R848 stimulation); settings: HEK-Blue cells overexpressing human TLR8, SEAP reporter, R848 15.9 μM
T2 construct: host or cells: HEK-Blue cells (HEK293-derived reporter line)
T2 sequence (Q9NR97 27-1041): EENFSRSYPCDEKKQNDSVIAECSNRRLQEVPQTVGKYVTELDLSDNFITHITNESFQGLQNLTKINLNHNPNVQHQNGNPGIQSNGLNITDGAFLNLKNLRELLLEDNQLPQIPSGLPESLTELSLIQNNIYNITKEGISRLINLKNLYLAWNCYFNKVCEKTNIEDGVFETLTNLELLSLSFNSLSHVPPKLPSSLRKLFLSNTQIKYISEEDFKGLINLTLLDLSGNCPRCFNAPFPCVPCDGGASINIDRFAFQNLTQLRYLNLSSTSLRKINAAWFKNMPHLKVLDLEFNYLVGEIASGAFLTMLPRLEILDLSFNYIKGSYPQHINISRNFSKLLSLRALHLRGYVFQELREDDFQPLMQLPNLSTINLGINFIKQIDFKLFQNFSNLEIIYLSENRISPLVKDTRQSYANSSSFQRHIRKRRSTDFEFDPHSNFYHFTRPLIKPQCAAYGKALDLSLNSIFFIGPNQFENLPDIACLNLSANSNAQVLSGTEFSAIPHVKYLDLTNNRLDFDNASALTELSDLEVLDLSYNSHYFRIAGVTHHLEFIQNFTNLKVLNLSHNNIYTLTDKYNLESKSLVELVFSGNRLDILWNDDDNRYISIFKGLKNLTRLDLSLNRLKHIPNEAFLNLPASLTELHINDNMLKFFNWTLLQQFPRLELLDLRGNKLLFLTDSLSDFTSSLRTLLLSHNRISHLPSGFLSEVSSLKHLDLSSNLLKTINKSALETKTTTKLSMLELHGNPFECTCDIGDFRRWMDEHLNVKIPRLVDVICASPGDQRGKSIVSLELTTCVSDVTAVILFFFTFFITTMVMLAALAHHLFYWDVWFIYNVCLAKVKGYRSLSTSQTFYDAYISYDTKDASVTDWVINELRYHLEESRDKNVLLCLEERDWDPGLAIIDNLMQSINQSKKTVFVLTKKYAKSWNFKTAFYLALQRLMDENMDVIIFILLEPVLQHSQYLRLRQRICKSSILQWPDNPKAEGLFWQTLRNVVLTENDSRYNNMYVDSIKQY
In short: as §1

[3] = target: T3, human TLR9 (Homo sapiens, UniProt Q9NR96); assay: TLR9 inhibition reporter assay (HEK-Blue cells, SEAP reporter, ODN2006 stimulation); settings: HEK-Blue cells overexpressing human TLR9, SEAP reporter, ODN2006 5 nM
T3 construct: host or cells: HEK-Blue cells (HEK293-derived reporter line)
T3 sequence (Q9NR96 26-1032): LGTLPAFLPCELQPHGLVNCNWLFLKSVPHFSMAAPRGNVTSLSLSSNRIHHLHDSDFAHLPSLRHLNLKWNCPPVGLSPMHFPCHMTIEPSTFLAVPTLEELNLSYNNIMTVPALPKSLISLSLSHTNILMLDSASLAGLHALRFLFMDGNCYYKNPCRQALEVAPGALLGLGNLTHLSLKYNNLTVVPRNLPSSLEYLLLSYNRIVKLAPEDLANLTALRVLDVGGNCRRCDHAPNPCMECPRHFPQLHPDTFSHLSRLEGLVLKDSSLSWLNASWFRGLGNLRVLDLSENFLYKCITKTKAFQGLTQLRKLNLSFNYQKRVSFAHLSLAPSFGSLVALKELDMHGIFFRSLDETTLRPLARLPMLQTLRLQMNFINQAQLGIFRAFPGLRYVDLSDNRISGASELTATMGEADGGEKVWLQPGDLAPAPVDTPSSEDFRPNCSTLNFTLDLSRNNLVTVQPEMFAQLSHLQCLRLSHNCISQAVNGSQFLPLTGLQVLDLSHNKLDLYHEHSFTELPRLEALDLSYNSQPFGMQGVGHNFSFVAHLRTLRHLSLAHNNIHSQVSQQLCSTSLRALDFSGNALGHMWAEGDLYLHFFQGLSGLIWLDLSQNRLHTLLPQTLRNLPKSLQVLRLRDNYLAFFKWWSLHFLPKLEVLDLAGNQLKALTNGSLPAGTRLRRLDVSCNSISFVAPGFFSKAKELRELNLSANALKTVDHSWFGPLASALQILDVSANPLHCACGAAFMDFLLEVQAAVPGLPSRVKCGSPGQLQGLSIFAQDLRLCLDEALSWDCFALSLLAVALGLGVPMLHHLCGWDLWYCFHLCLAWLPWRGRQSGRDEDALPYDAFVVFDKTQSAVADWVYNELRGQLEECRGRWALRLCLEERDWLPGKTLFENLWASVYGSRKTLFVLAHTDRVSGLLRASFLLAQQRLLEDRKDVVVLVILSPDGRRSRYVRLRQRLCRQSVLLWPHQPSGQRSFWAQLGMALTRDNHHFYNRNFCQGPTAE
In short: as §1

| Compound | IC50 [1] [µM] | IC50 [2] [µM] | IC50 [3] [µM] |
| --- | --- | --- | --- |
| Cc1c[nH]c2nccc(-c3[nH]c4ccc(C5CCNCC5)cc4c3C(C)C)c12 [Example 215, 4-(3-isopropyl-5-(piperidin-4-yl)-1H-indol-2-yl)-3-methyl-1H-pyrrolo[2,3-b]pyridine] | 0.1 to 1 | 0.1 to 1 | 1 to 50 |
| CC(C)c1c(-c2ccnc3[nH]cc(O)c23)[nH]c2ccc(C3CCNCC3)cc12 [Example 216, 4-(3-isopropyl-5-(piperidin-4-yl)-1H-indol-2-yl)-1H-pyrrolo[2,3-b]pyridin-3-ol] | 1 to 50 | 0.1 to 1 | 1 to 50 |
| CCc1c(-c2ccc3ncc(C)n3n2)[nH]c2ccc(C3CCNCC3)cc12 [Example 103, 6-(3-ethyl-5-(piperidin-4-yl)-1H-indol-2-yl)-3-methylimidazo[1,2-b]pyridazine] | 1 to 50 | 0.1 to 1 | 1 to 50 |
| CCC(C)NCC(=O)N1CCC(c2ccc3[nH]c(-c4ccnc5[nH]ncc45)c(C(C)C)c3c2)CC1 (stereo not drawn) [Example 583, 2-(sec-butylamino)-1-(4-(3-isopropyl-2-(1H-pyrazolo[3,4-b]pyridin-4-yl)-1H-indol-5-yl)piperidin-1-yl)ethan-1-one] | < 0.1 | < 0.1 | 1 to 50 |
| CNC(=O)CN1CCC(c2ccc3[nH]c(-c4cc(C)c5nc(C(=O)N(C)CCO)cn5c4)c(C(C)C)c3c2)CC1 [Example 345, N-(2-hydroxyethyl)-6-(3-isopropyl-5-(1-(2-(methylamino)-2-oxoethyl)piperidin-4-yl)-1H-indol-2-yl)-N,8-dimethylimidazo[1,2-a]pyridine-2-carboxamide] | < 0.1 | 0.1 to 1 | 1 to 50 |
| CC(C)c1c(-c2cc(F)c3nccn3c2)[nH]c2ccc(C3CCN(CC(=O)N(C)C)CC3)cc12 [Example 408, 2-(4-(2-(8-fluoroimidazo[1,2-5a]pyridin-6-yl)-3-isopropyl-1H-indol-5-yl)piperidin-1-yl)-N,N-dimethylacetamide] | < 0.1 | 0.1 to 1 | 1 to 50 |

The next lines start with the values.

| IC50 [1] [µM] | IC50 [2] [µM] | IC50 [3] [µM] | Compound |
| --- | --- | --- | --- |
| < 0.1 | < 0.1 | 1 to 50 | CC(=O)N1CCCN(CC(=O)N2CCC(c3ccc4[nH]c(-c5ccnc6[nH]ncc56)c(C(C)C)c4c3)CC2)CC1 [Example 586, 2-(4-acetyl-1,4-diazepan-1-yl)-1-(4-(3-isopropyl-2-(1H-pyrazolo[3,4-b]pyridin-4-yl)-1H-indol-5-yl)piperidin-1-yl)ethan-1-one] |
| < 0.1 | < 0.1 | 0.1 to 1 | CC(CN(C)C)CN1CCC(c2ccc3[nH]c(-c4ccnc5[nH]ncc45)c(C(C)C)c3c2)CC1 (stereo not drawn) [Example 846, 3-(4-(3-isopropyl-2-(1H-pyrazolo[3,4-b]pyridin-4-yl)-1H-indol-5-yl)piperidin-1-yl)-N,N,2-trimethylpropan-1-amine] |
| 0.1 to 1 | 0.1 to 1 | 1 to 50 | Cc1cc(-c2[nH]c3ccc(C4CCN(C5COC5)CC4)cc3c2C(C)C)cc2cncn12 [Example 724, 7-(3-isopropyl-5-(1-(oxetan-3-yl)piperidin-4-yl)-1H-indol-2-yl)-5-methylimidazo[1,5-a]pyridine] |
| < 0.1 | < 0.1 | 1 to 50 | COc1cc(-c2[nH]c3ccc(C4CCN(C5CCOCC5)CC4)cc3c2C(C)C)nn2ncnc12 [Example 692, 6-(3-isopropyl-5-(1-(tetrahydro-2H-pyran-4-yl)piperidin-4-yl)-1H-indol-2-yl)-8-methoxy-[1,2,4]triazolo[1,5-b]pyridazine] |
| < 0.1 | < 0.1 | 1 to 50 | CC(C)c1c(-c2cn(C)c3ncccc23)[nH]c2ccc(C3CCN(Cc4cnn[nH]4)CC3)cc12 [Example 877, 3-(5-(1-((1H-1,2,3-triazol-5-yl)methyl)piperidin-4-yl)-3-isopropyl-1H-indol-2-yl)-1-methyl-1H-pyrrolo[2,3-b]pyridine] |
| 0.1 to 1 | < 0.1 | 1 to 50 | CCc1c(-c2ccnc3[nH]ncc23)[nH]c2ccc(C3CCN(Cc4cocn4)CC3)cc12 [Example 920, 4-((4-(3-ethyl-2-(1H-pyrazolo[3,4-b]pyridin-4-yl)-1H-indol-5-yl)piperidin-1-yl)methyl)oxazole] |
| < 0.1 | < 0.1 | 1 to 50 | CC(C)c1c(-c2cc(CO)c3nnnn3c2)[nH]c2ccc(C3CCN(CC4(C)COC4)CC3)cc12 [Example 781, (6-(3-isopropyl-5-(1-((3-methyloxetan-3-yl)methyl)piperidin-4-yl)-1H-indol-2-yl)tetrazolo[1,5-a]pyridin-8-yl)methanol] |
| < 0.1 | > 3.13 | 1 to 50 | Cc1nc2cc(-c3[nH]c4ccc(C5CCN(C(=O)CC(C)(C)O)CC5)cc4c3C(C)C)ccn2n1 [Example 601, 3-hydroxy-1-(4-(3-isopropyl-2-(2-methyl-[1,2,4]triazolo[1,5-a]pyridin-7-yl)-1H-indol-5-yl)piperidin-1-yl)-3-methylbutan-1-one] |
